In ChEMBL document CHEMBL1146534, “Synthetic method and biological activities of cis-fused alpha-methylene gamma-lactones” (2003):

Assays:
Assay type in all cases: functional
Venturia inaequalis [1] = test: Prevention of Venturia inaequalis-mediated scab of apple disease at 500 ppm by Pot test
P388 [2] = test: Cytotoxicity against mouse P388 cells assessed as cell growth inhibitory ratio at 10 ug/mL after 48 hrs relative to control; design: scale not given: the % may be the effect or the level left
Blumeria graminis = test: Prevention of Erysiphe graminis-mediated powdery mildew of wheat disease at 500 ppm after 10 days at 22 deg C under fluorescent lamp by Pot test
P388 [3] = test: Cytotoxicity against mouse P388 cells assessed as cell growth inhibitory ratio at 1 ug/mL after 48 hrs relative to control; design: scale not given: the % may be the effect or the level left
Pythium aphanidermatum = test: Prevention of Pythium aphanidermatum-mediated damping off of cucumber disease at 500 ppm/20 mL per pot after 14 days at 25 degC under green house by Pot test
Rhizoctonia solani = test: Prevention of Rhizoctonia solani-mediated sheath blight of rice disease at 500 ppm after 4 days at 28 degC by Pot test
P388 [4] = test: Cytotoxicity against mouse P388 cells assessed as cell growth inhibitory ratio at 0.1 ug/mL after 48 hrs relative to control; design: scale not given: the % may be the effect or the level left
Alternaria [5] = test: Antimicrobial activity against Alternaria kikuchiana at 100 ppm after 4 days at 28 degC
Rhynchosporium secalis [6] = test: Antimicrobial activity against Rhynchosporium secalis at 200 ppm after 11 days at 18 degC
Pyrenophora graminea [7] = test: Antimicrobial activity against Pyrenophora graminea at 200 ppm after 4 days at 28 degC
Alternaria [8] = test: Antimicrobial activity against Alternaria kikuchiana at 50 ppm after 4 days at 28 degC
Venturia inaequalis [9] = test: Antimicrobial activity against Venturia inaequalis at 100 ppm after 11 days at 18 degC
Rhynchosporium secalis [10] = test: Antimicrobial activity against Rhynchosporium secalis at 50 ppm after 11 days at 18 degC
Pyrenophora graminea [11] = test: Antimicrobial activity against Pyrenophora graminea at 100 ppm after 4 days at 28 degC
Alternaria [12] = test: Antimicrobial activity against Alternaria kikuchiana at 200 ppm after 4 days at 28 degC
Mycosphaerella [13] = test: Antimicrobial activity against Mycosphaerella melonis at 50 ppm after 4 days at 28 degC
Venturia inaequalis [14] = test: Antimicrobial activity against Venturia inaequalis at 200 ppm after 11 days at 18 degC
Mycosphaerella [15] = test: Antimicrobial activity against Mycosphaerella melonis at 200 ppm after 4 days at 28 degC
Mycosphaerella [16] = test: Antimicrobial activity against Mycosphaerella melonis at 100 ppm after 4 days at 28 degC
Pyrenophora graminea [17] = test: Antimicrobial activity against Pyrenophora graminea at 50 ppm after 4 days at 28 degC
Rhynchosporium secalis [18] = test: Antimicrobial activity against Rhynchosporium secalis at 100 ppm after 11 days at 18 degC
Venturia inaequalis [19] = test: Antimicrobial activity against Venturia inaequalis at 50 ppm after 11 days at 18 degC

Row | Structure (SMILES) | Activity (Venturia inaequalis [1]) | Activity (P388 [2]) | Activity (Blumeria graminis) | Activity (P388 [3]) | Activity (Pythium aphanidermatum) | Activity (Rhizoctonia solani) | Activity (P388 [4]) | further results
1 | C=C1C(=O)O[C@H]2CCCCC[C@@H]12 | 90% | 102% | 0% | 76% | 0% | 0% | 9% | –
2 | C=C1C(=O)O[C@H]2CC[C@H](C)CC[C@@H]12 | 0% | 102% | 0% | 50% | 100% | 0% | 15% | –
3 | C=C1C(=O)O[C@H]2CC[C@@H](C)CC[C@@H]12 | 0% | 101% | 0% | 69% | 70% | 0% | 38% | –
4 | C=C1C(=O)O[C@H]2[C@@H](O)CCCC[C@@H]12 | 0% | 100% | 50% | 40% | 100% | 50% | 11% | Activity (Alternaria [5]): 20%; Activity (Rhynchosporium secalis [6]): 100%; Activity (Pyrenophora graminea [7]): 50%; Activity (Alternaria [8]): 0%; Activity (Venturia inaequalis [9]): 50%; Activity (Rhynchosporium secalis [10]): 30%; Activity (Pyrenophora graminea [11]): 0%; Activity (Alternaria [12]): 40%; Activity (Mycosphaerella [13]): 70%; Activity (Venturia inaequalis [14]): 0%; Activity (Mycosphaerella [15]): 100%; Activity (Mycosphaerella [16]): 80%; Activity (Pyrenophora graminea [17]): 0%; Activity (Rhynchosporium secalis [18]): 60%
5 | CC1=C2CCCCC[C@@H]2OC1=O | – | 43% | – | 4% | – | – | 7% | –
6 | O=C1C[C@@H]2CCCC[C@H](O)[C@@H]2O1 | 0% | – | 90% | – | 0% | 0% | – | Activity (Alternaria [5]): 0%; Activity (Rhynchosporium secalis [6]): 0%; Activity (Pyrenophora graminea [7]): 0%; Activity (Alternaria [8]): 0%; Activity (Venturia inaequalis [9]): 0%; Activity (Rhynchosporium secalis [10]): 0%; Activity (Pyrenophora graminea [11]): 0%; Activity (Alternaria [12]): 0%; Activity (Mycosphaerella [13]): 0%; Activity (Venturia inaequalis [19]): 0%; Activity (Venturia inaequalis [14]): 0%; Activity (Mycosphaerella [15]): 0%; Activity (Mycosphaerella [16]): 0%; Activity (Pyrenophora graminea [17]): 0%; Activity (Rhynchosporium secalis [18]): 0%
7 | C=C1C(=O)O[C@H]2[C@@H](OC(C)=O)CCCC[C@@H]12 | 0% | 102% | 30% | 21% | 100% | 30% | 9% | –
